This is an account of results in ChEMBL document CHEMBL5370541, “Targeting VPS34 in autophagy: An update on pharmacological small-molecule compounds” (Eur J Med Chem, 2023).

Test [1] addresses T1, Phosphatidylinositol 3-kinase catalytic subunit type 3 (Homo sapiens, UniProt Q8NEB9). Briefly: Inhibition of VPS34 (unknown origin) by ADP hunter plus assay.
For test [2], the system named is MCF7. Briefly: Inhibition of starvation-induced autophagy in human MCF7 cells expressing eGFP-tagged LC3. It counts as functional, cell-based.
Test [3] addresses T1, Phosphatidylinositol 3-kinase catalytic subunit type 3. Briefly: Binding affinity to VPS34 (unknown origin) assessed as dissociation constant by KINOMEscan analysis.
The subject of test [4] is MCF7. In words: Inhibition of rapamycin-induced autophagy in human MCF7 cells expressing eGFP-tagged LC3. It counts as functional, cell-based.

T1 sequence (Q8NEB9 whole entry): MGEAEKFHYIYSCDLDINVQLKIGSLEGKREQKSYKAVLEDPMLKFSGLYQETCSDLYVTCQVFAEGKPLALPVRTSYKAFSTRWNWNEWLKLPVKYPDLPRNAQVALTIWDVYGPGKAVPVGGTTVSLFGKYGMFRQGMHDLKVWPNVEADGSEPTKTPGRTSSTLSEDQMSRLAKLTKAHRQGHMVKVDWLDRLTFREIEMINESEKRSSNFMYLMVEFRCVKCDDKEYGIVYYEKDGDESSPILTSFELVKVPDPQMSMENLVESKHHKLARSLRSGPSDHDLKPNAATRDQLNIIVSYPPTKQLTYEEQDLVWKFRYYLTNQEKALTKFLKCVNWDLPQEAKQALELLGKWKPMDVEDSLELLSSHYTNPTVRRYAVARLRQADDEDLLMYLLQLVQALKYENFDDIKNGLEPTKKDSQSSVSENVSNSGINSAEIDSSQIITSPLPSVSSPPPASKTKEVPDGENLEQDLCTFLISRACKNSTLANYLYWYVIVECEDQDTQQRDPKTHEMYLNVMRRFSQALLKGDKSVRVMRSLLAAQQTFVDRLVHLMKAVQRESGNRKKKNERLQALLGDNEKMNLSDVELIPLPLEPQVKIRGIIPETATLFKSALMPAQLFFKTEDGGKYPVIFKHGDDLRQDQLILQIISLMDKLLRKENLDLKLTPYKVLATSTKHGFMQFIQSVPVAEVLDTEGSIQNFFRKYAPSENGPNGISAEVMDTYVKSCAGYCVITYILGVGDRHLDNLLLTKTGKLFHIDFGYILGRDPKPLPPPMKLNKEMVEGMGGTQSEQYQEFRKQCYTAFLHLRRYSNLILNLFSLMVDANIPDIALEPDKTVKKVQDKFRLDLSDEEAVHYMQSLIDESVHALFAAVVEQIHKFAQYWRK

As usually defined, the IC50 is the point on the concentration scale where inhibition reaches its midpoint. `O=C1Nc2ccc(-c3cccnc3)cc2C1=Cc1cc(Br)c(O)c(Br)c1`: the IC50 in test [1] was 151 nM.
Turning to `O=c1cc(N2CCOCC2)nc2n(Cc3cccc(Cl)c3Cl)c(C3CC3)nn12`, in test [1], the IC50 is 9.12 nM.
`COc1ccc2nccc([C@@H](O)[C@@H]3C[C@@H]4CCN3c3c4[nH]c4nc(Cl)ccc34)c2c1` registered an IC50 in the test with MCF7 [2] of 8120 nM.
For orientation: Kd means the free concentration of one partner at which half of the binding sites on the other are occupied at equilibrium, for simple one-to-one binding. For `C[C@@H]1COCCN1c1cc(N2CCCC[C@@H]2C(F)(F)F)[nH]c(=O)c1`, in test [3], the Kd was found to be 1 nM.
In the case of `O=S(=O)(c1ccc(-c2ccnc3[nH]ccc23)cc1)C1CCCC1`, the half-inhibitory concentration (IC50) in test [1] was 1510 nM.
As to `COc1ccc2nccc([C@@H](O)[C@@H]3C[C@@H]4CCN3c3c4[nH]c4nc(C)c(Br)cc34)c2c1`, the concentration for half-maximal inhibition (IC50) with MCF7 [2] was found to be 40 nM; with MCF7 [4], 8 nM.
As to `COc1ccc2nccc([C@@H](O)[C@@H]3C[C@@H]4CCN3c3c4[nH]c4nc(C(F)(F)F)ccc34)c2c1`, the midpoint of inhibition in the test with MCF7 [2], the IC50, lay at 5820 nM.
